# Patent US8883836B2, “Solid forms of bendamustine hydrochloride” (Cephalon, Inc., priority 2008, dated 2014)
# Key:
# [1] = Storage of solid forms under temperature/humidity or ambient conditions, XRPD re-analysis; format: physicochemical; details: for change on storage: 24 hours under ambient conditions
# [2] = Gravimetric Vapor Sorption (GVS); format: physicochemical; details: for solid form by XRPD re-analysis after GVS humidity cycles: reanalysis under ambient conditions, hydrochloride
# Method: Gravimetric Vapor Sorption (GVS)
# Sorption isotherms were obtained using a Hiden IGASorp moisture sorption analyser, controlled by CFRSorp software. The sample temperature was maintained at 25° C. by a Huber recirculating water bath. The humidity was controlled by mixing streams of dry and wet nitrogen, with a total flow rate of 250 ml·min-1. The relative humidity was measured by a calibrated Vaisala RH probe (dynamic range of 0-95% RH), located near the sample. The weight change, (mass relaxation) of the sample as a function of % RH was constantly monitored by themicrobalance (accuracy ±0.001 mg). Typically 1-3 mg of sample was placed in a tared mesh stainless steel basket under ambient conditions. The sample was loaded and unloaded at 40% RH and 25° C. (typical room conditions). A moisture sorption isotherm was performed as outlined below (2 scans giving 1 complete cycle). The standard isotherm was performed at 25° C. at 10% RH intervals over a 0-90% RH range.
# The software uses a least squares minimization procedure together with a model of the mass relaxation, to predict an asymptotic value. The measured mass relaxation value must be within 5% of that predicted by the software before the next % RH value is selected. The minimum equilibration time was set to 1 hour and the maximum to 4 hours.
# [3] = Stability of Forms 1 and 2 (temperature/humidity storage, XRPD); format: physicochemical; details: for purity after storage: 4° C./87% RH (5) and 60° C./75% RH (13) for 6 weeks; for kinetic stability on storage: 6 weeks at 4° C./34 to 76% RH, 25° C./43 to 75% RH and 60° C./11 to 75% RH
# Method: Stability of Forms 1 and 2 of Bendamustine Hydrochloride
# 10 mg of bendamustine hydrochloride Form 1 (A), bendamustine hydrochloride Form 2 (B), and a 1:1 mixture of Forms 1 and 2 (C) were stored under the conditions listed in Table 7. Samples were analyzed by XRPD at 1 day, 2 week, and 6 week time points. […] The rate of this conversion appears to increase with temperature. The purity of Forms 1 and 2 after storage at 4° C./87% RH (5) and 60° C./75% RH (13) for 6 weeks was measured.
# [4] = Light Stability (Suntest Light Box); format: physicochemical; details: for change in crystallinity and purity during light stress test: 25° C.; for Purity (%): HPLC
# Method: Light Stability of Bendamustine Hydrochloride
# Samples of Form 1 and Form 2 of Bendamustine Hydrochloride were stressed in a Suntest Light Box with a light intensity of 250 watts/m2 for 1 week with the black body temperature set to 25° C. A blank of each sample, wrapped in foil for protection, was also included in the experiment. After the experiment, samples were analyzed by XRPD and the purity was determined by HPLC.
# [5] = Maturation Experiment (slurry of Form 1 in solvents, XRPD); format: physicochemical; details: slurry 48 hours, 4 hour periods at 50 C and ambient
# Method: Approximately 10 mg of Form 1 bendamustine hydrochloride was slurried in the solvents list in Table 3. The slurries were shaken for 48 hours with alternating 4 hour periods at 50 C and ambient temperature. Any solid material was then isolated by filtration and analyzed by XRPD. Solutions were allowed to evaporate.
# [6] = Thermodynamic Aqueous Solubility by HPLC; format: physicochemical
# Method: Thermodynamic Aqueous Solubility by HPLC
# Aqueous solubility was determined by suspending sufficient compound in 0.25 ml of water to give a maximum final concentration of ≧10 mg·ml^−1 of the parent free-form of the compound. The suspension was equilibrated at 25° C. for 24 hours (unless otherwise stated) after which the pH was measured. The suspension was then filtered through a glass fibre C filter into a 96 well plate. The filtrate was then diluted by a factor of 100 times. Quantitation was by HPLC with reference to a standard solution of approximately 0.1 mg·ml-1 in DMSO. Different volumes of the standard, diluted and undiluted sample solutions were injected. The solubility was calculated using the peak areas determined by integration of the peak found at the same retention time as the principal peak in the standard injection.
# [7] = Preparation of solutions: solubility of Form 1 in solvents; details: for Volume Added: 50 mg Form 1, aliquots with heating to 50° C. until clear solution
# Method: Preparation of Solutions of Bendamustine Hydrochloride
# 50 mg of bendamustine hydrochloride Form 1 was weighed into a screw-top vial. Solvent was added in aliquots (with heating to 50° C.) until a clear solution was obtained.
# [8] = Log P Determination (potentiometric titration, octanol:ISA water); format: physicochemical
# From the text: Data were collected by potentiometric titration on a Sirius GlpKa instrument using three ratios of octanol:ionic-strength adjusted (ISA) water to generate Log P, Log Pion, and Log D values. The data were refined using Refinement Pro software v1.0. Prediction of Log P values was made using ACD v9 and Syracuse KOWWIN v1.67 software.
# [9] = pKa Determination (Sirius GlpKa, UV); format: physicochemical; details: by UV in aqueous conditions, 25° C.
# Method: pKa Determination and Prediction
# Data were collected on a Sirius GlpKa instrument with a D-PAS attachment. Measurements were made at 25° C. in aqueous solution by UV. The compound was initially dissolved in DMSO at 5 mg/ml of which 50 μl (0.25 mg) was used for the titration from pH 1.3 to 9.0. The titration media was ionic-strength adjusted (ISA) with 0.15 M KCl (aq). The data were refined using Refinement Pro software v1.0. Prediction of pKa values was made using ACD pKa prediction software v9.
# [10] = 1 week at 40° C./75% RH, hydrochloride
# [11] = 250 watts/m2, 1 week, hydrochloride
# [12] = blank wrapped in foil, 1 week in light box
# [13] = light stressed, 250 watts/m2, 1 week, hydrochloride
smiles,measurement,setting,value
"Cl.Cn1c(CCCC(=O)O)nc2cc(N(CCCl)CCCl)ccc21 [Form 4, bendamustine hydrochloride]",change on storage,[1]; hydrochloride,converted to Form 2
"Cl.Cn1c(CCCC(=O)O)nc2cc(N(CCCl)CCCl)ccc21 [Amorphous bendamustine hydrochloride, bendamustine hydrochloride]",solid form by XRPD re-analysis after GVS humidity cycles,[2],converted to Form 2
same,change on storage (XRPD),[1]; [10],partial crystallization occurred
same,change on storage,[1]; hydrochloride,became gummy
same,hygroscopicity,[1]; inferred from 24 hours under ambient conditions,hygroscopic
"Cl.Cn1c(CCCC(=O)O)nc2cc(N(CCCl)CCCl)ccc21 [Form 2, bendamustine hydrochloride]",purity after storage,[3],No large purity decreases
same,kinetic stability on storage,[3],kinetically stable
same,conversion of Form 2 to Form 1 on storage,[3]; after 6 weeks,No conversion of Form 2 to Form 1
same,uptake during GVS analysis,"[2]; between 10 and 15% RH, equating to 1 mole of water",4%
same,solid form by XRPD re-analysis after GVS humidity cycles,[2],partial conversion occurred
same,change on storage (XRPD),[1]; one month at 40° C./11% RH,became less crystalline
same,change on storage (XRPD),[1]; one month at 40° C./75% RH,no significant changes
same,change in crystallinity and purity during light stress test,[4]; [11],significant decrease in both crystallinity and purity
same,XRPD,[4]; [12],No change
same,Purity (%),"[4]; blank wrapped in foil, 1 week in light box, listed as Form 2 blank, hydrochloride",95.6%
same,Purity (%),[4]; [13],68.7%
same,XRPD,[4]; [13],Less crystalline (sample brown in colour)
"Cl.Cn1c(CCCC(=O)O)nc2cc(N(CCCl)CCCl)ccc21 [Form 3, bendamustine hydrochloride]",change on storage (XRPD),[1]; 1 month under ambient conditions,No significant changes
same,change on storage (XRPD),[1]; [10],conversion to Form 2
"Cl.Cn1c(CCCC(=O)O)nc2cc(N(CCCl)CCCl)ccc21 [Form 1, bendamustine hydrochloride]",XRPD Analysis after maturation,[5]; Acetone,Form 1
same,XRPD Analysis after maturation,[5]; Acetonitrile,Form 1
same,XRPD Analysis after maturation,[5]; Anisole,Form 1
same,XRPD Analysis after maturation,[5]; DCM,Form 1
same,XRPD Analysis after maturation,[5]; DIPE,Form 1
same,XRPD Analysis after maturation,[5]; Diethyl ether,Form 1
same,XRPD Analysis after maturation,[5]; Dioxane,Form 1
same,XRPD Analysis after maturation,[5]; Ethanol,Form 1
same,XRPD Analysis after maturation,[5]; Ethyl acetate,Form 1
same,XRPD Analysis after maturation,[5]; Heptane,Form 1
same,XRPD Analysis after maturation,[5]; IPA,Form 1
same,XRPD Analysis after maturation,[5]; Isopropyl acetate,Form 1
same,XRPD Analysis after maturation,[5]; MIBK,Form 1
same,XRPD Analysis after maturation,[5]; Methyl acetate,Form 1
same,XRPD Analysis after maturation,[5]; Nitromethane,Form 1
same,XRPD Analysis after maturation,[5]; TBME,Form 1
same,XRPD Analysis after maturation,[5]; THF,Form 1
same,XRPD Analysis after maturation,[5]; Toluene,Form 1
same,XRPD Analysis after maturation,[5]; Water,degradant
same,purity after storage,[3],No large purity decreases
same,kinetic stability on storage,[3],kinetically stable
same,form conversion on storage at high humidity,"[3]; 60° C./95% RH, 25° C. 94% RH and possibly 4° C./88% RH for 6, 6 and 2 weeks respectively",conversion of Form 1 to 2
same,form conversion under high humidity conditions,"[3]; ~90% RH, rate appears to increase with temperature",conversion of Form 1 of bendamustine hydrochloride to Form 2 was observed
same,solution pH,[6]; saturated aqueous solution of the solubility experiment,2.16
same,degradation of sample in aqueous solubility experiment,[6]; water,significant degradation occurred
same,aqueous solubility,"[6]; water, 25° C., 24 hours, significant degradation occurred",4.5 mg/mL
same,hygroscopicity,"[2]; GVS, 0 to 90% RH",low hygroscopicity
same,weight increase (hygroscopicity),[2]; between 0 and 90% relative humidity (RH),0.7%
same,solid form by XRPD re-analysis after GVS humidity cycles,[2],did not lead to a significant change in XRPD pattern
same,Solution Obtained?,"[7]; Acetic acid, 50 mg in 1 ml",Yes (50° C.)
same,Volume Added,[7]; Acetic acid,1000 µL
same,Solution Obtained?,"[7]; DMA, 50 mg in 500 μl",Yes (50° C.)
same,Volume Added,[7]; DMA,500 µL
same,Solution Obtained?,"[7]; DMF, 50 mg in 500 μl",Yes (50° C.)
same,Volume Added,[7]; DMF,500 µL
same,Solution Obtained?,"[7]; DMSO, 50 mg in 100 μl",Yes (50° C.)
same,Volume Added,[7]; DMSO,100 µL
same,Solution Obtained?,"[7]; Ethanol, 50 mg in 1 ml",Yes (50° C.)
same,Volume Added,[7]; Ethanol,1000 µL
same,Solution Obtained?,"[7]; Formamide, 50 mg in 1 ml",Yes (50° C.)
same,Volume Added,[7]; Formamide,1000 µL
same,Solution Obtained?,"[7]; Methanol, 50 mg in 100 μl",Yes (50° C.)
same,Volume Added,[7]; Methanol,100 µL
same,LogP,[8]; octanol:ISA water,1.10
same,LogD,[8]; pH7.4,0.68
same,change on storage (XRPD),[1]; [10],no significant changes
same,change on storage (XRPD),[1]; 2 months at 25° C./94% RH,converted to a hydrate of bendamustine hydrochloride (Form 2)
same,change on storage (XRPD),[1]; 3 weeks at 40° C./11% RH,no significant changes
same,change on storage (XRPD),[1]; one month at 25° C./94% RH,in the process of converting to Form 2
same,change in crystallinity and purity during light stress test,[4]; [11],only a slight decrease in purity
same,stability to degradation in light,[4]; as compared to Form 2,more stable to degradation in light
same,XRPD,[4]; [12],No change
same,Purity (%),"[4]; blank wrapped in foil, 1 week in light box, listed as Form 1 blank, hydrochloride",97.3%
same,Purity (%),[4]; [13],95.9%
same,XRPD,[4]; [13],No change (sample brown in colour)
same,pKa (Acid),[9],4.17
